Laboratory results reported in publication PMC9026127, “A Leucyl-tRNA Synthetase Urzyme: Authenticity of tRNA Synthetase Catalytic Activities and Promiscuous Phosphorylation of Leucyl-5′AMP” (International Journal of Molecular Sciences, 2022).

What was measured:
[1] = target: T1, Ec LeuRS (Escherichia coli, UniProt P07813); settings: leucine activation; 50 mM HEPES pH 7.5, 10 mM MgCl2, 10 μM ATP, 50 mM amino acid, pyrophosphatase
T1 construct: gene leuS

[2] = target: T2, LeuAC (LeuRS urzyme), TEV-cleaved (Pyrococcus horikoshii, UniProt O58698); assay: Sephadex G15 size-exclusion co-elution of [^[…]] leucine label; assay type: binding; settings: labelled compound; formed in situ from [^14C] leucine and ATP, presumed leucyl-5′AMP; 50 mM HEPES pH 7.5, 20 mM MgCl2, 37 °C; only a simulated upper limit for KD
T2 construct: gene leuS; MBP fusion (pMAL-c2x, E. coli), TEV-cleaved but MBP not separated; his-tagged

[3] = target: T3, P. horikoshii LeuRS (Pyrococcus horikoshii, UniProt O58698); assay: nitrocellulose filter binding, [^[…]] leucine; settings: labelled compound; formed in situ from 25 μM [^14C] leucine and 50 μM ATP, presumed leucyl-5′AMP; pH 7.5, 20 mM MgCl2, 37 °C
T3 construct: gene leuS; full length, synthetic gene in pET-11a, E. coli BL21-CodonPlus(DE3)-RIPL, Ni-NTA purified (tag not described), heat step 80 °C
T3 sequence (O58698 1-967): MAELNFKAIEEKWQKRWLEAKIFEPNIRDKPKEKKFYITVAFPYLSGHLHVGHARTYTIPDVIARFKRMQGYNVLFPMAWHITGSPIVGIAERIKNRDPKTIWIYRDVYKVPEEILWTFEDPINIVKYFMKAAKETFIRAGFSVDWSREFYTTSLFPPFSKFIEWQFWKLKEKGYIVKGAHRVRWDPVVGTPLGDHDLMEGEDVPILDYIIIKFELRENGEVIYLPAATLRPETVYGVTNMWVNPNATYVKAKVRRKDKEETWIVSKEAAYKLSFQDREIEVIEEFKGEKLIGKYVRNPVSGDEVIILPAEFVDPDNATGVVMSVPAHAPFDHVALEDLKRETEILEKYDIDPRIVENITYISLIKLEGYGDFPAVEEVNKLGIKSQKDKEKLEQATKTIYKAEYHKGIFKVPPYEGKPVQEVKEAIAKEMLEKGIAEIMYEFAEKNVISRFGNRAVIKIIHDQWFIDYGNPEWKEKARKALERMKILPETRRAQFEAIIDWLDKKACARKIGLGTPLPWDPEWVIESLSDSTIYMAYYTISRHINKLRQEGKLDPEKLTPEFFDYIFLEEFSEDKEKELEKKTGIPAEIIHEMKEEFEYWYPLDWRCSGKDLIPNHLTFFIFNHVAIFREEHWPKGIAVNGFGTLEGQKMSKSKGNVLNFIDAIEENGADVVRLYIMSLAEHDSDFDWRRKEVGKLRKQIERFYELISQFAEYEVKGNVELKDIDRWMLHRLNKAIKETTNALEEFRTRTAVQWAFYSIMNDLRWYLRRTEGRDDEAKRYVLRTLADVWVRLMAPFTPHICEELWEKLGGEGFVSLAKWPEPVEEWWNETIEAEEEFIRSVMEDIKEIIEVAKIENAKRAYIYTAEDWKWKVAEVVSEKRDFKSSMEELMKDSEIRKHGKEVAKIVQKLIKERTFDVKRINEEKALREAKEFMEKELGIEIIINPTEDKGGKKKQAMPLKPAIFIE

[4] = substrate: CC(C)C[C@H](N)C(=O)O; assay: purified protein; assay type: biochemical, Pyrococcus horikoshii; settings: unit not printed beside the value (M inferred), tRNA^Leu and ATP co-substrates, 50 mM HEPES pH 7.5, 10 mM MgCl2

T1 sequence (P07813 whole entry): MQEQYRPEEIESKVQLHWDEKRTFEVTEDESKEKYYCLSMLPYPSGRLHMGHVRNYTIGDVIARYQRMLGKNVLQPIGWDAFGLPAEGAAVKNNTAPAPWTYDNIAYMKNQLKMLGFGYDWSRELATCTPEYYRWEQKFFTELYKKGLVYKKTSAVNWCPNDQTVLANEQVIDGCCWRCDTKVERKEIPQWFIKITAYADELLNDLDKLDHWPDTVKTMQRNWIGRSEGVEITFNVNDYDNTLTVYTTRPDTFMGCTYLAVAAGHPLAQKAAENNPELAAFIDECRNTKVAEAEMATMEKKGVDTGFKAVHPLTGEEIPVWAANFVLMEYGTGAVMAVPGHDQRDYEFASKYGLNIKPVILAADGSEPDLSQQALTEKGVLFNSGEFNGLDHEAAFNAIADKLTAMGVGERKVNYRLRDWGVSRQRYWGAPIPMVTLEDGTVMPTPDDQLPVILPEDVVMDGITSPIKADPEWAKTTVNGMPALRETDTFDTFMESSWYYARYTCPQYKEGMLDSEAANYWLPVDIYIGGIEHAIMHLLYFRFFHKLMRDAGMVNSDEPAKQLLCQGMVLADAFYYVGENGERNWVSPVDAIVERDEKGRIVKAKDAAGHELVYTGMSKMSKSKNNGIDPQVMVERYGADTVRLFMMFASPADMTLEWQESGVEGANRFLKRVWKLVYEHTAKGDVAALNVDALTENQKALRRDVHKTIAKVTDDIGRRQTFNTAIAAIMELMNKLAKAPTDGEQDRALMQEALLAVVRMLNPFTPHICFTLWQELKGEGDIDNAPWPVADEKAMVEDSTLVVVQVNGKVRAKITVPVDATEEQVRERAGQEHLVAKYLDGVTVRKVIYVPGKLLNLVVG

Molecule: Nc1ncnc2c1ncn2[C@@H]1O[C@H](COP(=O)(O)OP(=O)(O)OP(=O)(O)O)[C@@H](O)[C@H]1O [ATP]
- single-turnover active-site titration, [^32P] ATP, TLC [1]: Full-length LeuRS from both E. coli and P. horikoshii produce minor amounts of ADP

Molecule: CC(C)C[C@H](N)C(=O)OP(=O)(O)OC[C@H]1O[C@@H](n2cnc3c(N)ncnc32)[C@H](O)[C@@H]1O [leucyl-5′AMP]
- Sephadex G15 size-exclusion co-elution of [^14C] leucine label [2]: lower limit on both the stoichiometry and affinity of the active LeuAC•leucyl-5′ AMP complex
- moles [^14C] leucine/mole enzyme [3]: 0.48 ± 0.13 mol/mol

B1: P. horikoshii LeuRS (Pyrococcus horikoshii OT3) (protein)
chain: MAELNFKAIEEKWQKRWLEAKIFEPNIRDKPKEKKFYITVAFPYLSGHLHVGHARTYTIPDVIARFKRMQGYNVLFPMAWHITGSPIVGIAERIKNRDPKTIWIYRDVYKVPEEILWTFEDPINIVKYFMKAAKETFIRAGFSVDWSREFYTTSLFPPFSKFIEWQFWKLKEKGYIVKGAHRVRWDPVVGTPLGDHDLMEGEDVPILDYIIIKFELRENGEVIYLPAATLRPETVYGVTNMWVNPNATYVKAKVRRKDKEETWIVSKEAAYKLSFQDREIEVIEEFKGEKLIGKYVRNPVSGDEVIILPAEFVDPDNATGVVMSVPAHAPFDHVALEDLKRETEILEKYDIDPRIVENITYISLIKLEGYGDFPAVEEVNKLGIKSQKDKEKLEQATKTIYKAEYHKGIFKVPPYEGKPVQEVKEAIAKEMLEKGIAEIMYEFAEKNVISRFGNRAVIKIIHDQWFIDYGNPEWKEKARKALERMKILPETRRAQFEAIIDWLDKKACARKIGLGTPLPWDPEWVIESLSDSTIYMAYYTISRHINKLRQEGKLDPEKLTPEFFDYIFLEEFSEDKEKELEKKTGIPAEIIHEMKEEFEYWYPLDWRCSGKDLIPNHLTFFIFNHVAIFREEHWPKGIAVNGFGTLEGQKMSKSKGNVLNFIDAIEENGADVVRLYIMSLAEHDSDFDWRRKEVGKLRKQIERFYELISQFAEYEVKGNVELKDIDRWMLHRLNKAIKETTNALEEFRTRTAVQWAFYSIMNDLRWYLRRTEGRDDEAKRYVLRTLADVWVRLMAPFTPHICEELWEKLGGEGFVSLAKWPEPVEEWWNETIEAEEEFIRSVMEDIKEIIEVAKIENAKRAYIYTAEDWKWKVAEVVSEKRDFKSSMEELMKDSEIRKHGKEVAKIVQKLIKERTFDVKRINEEKALREAKEFMEKELGIEIIINPTEDKGGKKKQAMPLKPAIFIE
notes: full length, synthetic gene in pET-11a, E. coli BL21-CodonPlus(DE3)-RIPL, Ni-NTA purified (tag not described), heat step 80 °C
- Km [4]: 5.9 ± 0.8 × 10^−6 M
